Drawing on PubChem BioAssay (NCI), this text covers TGI and GI50 for 11 molecules.

Among the test systems are MOLT-4 leukemia; OVCAR-3 ovarian; U251 CNS; OVCAR-4 ovarian; NCI-H522 lung; HCC-2998 colon; SN12C renal; SF-295 CNS; HCT-15 colon; M14 melanoma.
Common to all, as to assay: DTP human tumour cell line panel, 48 h

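A five-concentration, 48-hour dose response in 96-well plates underlies each endpoint, interpolated linearly between surrounding concentrations. GI50: concentration for 50% inhibition of growth. TGI: concentration producing complete growth inhibition.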 Bounds are passed on as bounds.

Broadly, the TGI is the concentration giving total growth inhibition. Regarding `CC(C)N(C(=O)C12C3C4C5(C#N)C3C1(C#N)C5C42C#N)C(C)C` (stereo not given), the TGI in the experiment with MOLT-4 leukemia, in the experiment with OVCAR-3 ovarian, with U251 CNS, in the experiment on OVCAR-4 ovarian, in the experiment on NCI-H522 lung and in the experiment with HCC-2998 colon was over 100 µM each time. Besides, the TGI with SN12C renal and in the experiment on SF-295 CNS was over 100 µM throughout.

What is called GI50 is the concentration that inhibits growth by half. Take `COc1ccc(Nc2nc3cc(N)cc(N)c3nc2-c2ccccc2)cc1`: the GI50 with OVCAR-3 ovarian is 17.3 µM; in the experiment on U251 CNS, 16.3 µM; with OVCAR-4 ovarian, 10.4 µM; with HCT-15 colon it was 15.3 µM; in the experiment with M14 melanoma, 17.6 µM; with NCI-H522 lung it was 14.7 µM. Moreover, the GI50 is 28.1 µM with HCC-2998 colon, 20.6 µM in the experiment on SN12C renal and 31.9 µM in the experiment on SF-295 CNS. The concentration for total growth inhibition (TGI) in the experiment on OVCAR-3 ovarian came to 37.3 µM; in the experiment with U251 CNS, 29.8 µM; with OVCAR-4 ovarian, 22.1 µM; in the experiment on HCT-15 colon, 45 µM; with M14 melanoma it was 36.3 µM; in the experiment with NCI-H522 lung, 27.9 µM. Also, the TGI with HCC-2998 colon was over 100 µM; in the experiment on SN12C renal, 57.4 µM; in the experiment with SF-295 CNS, over 100 µM.

As for `C[C@@H](Oc1cc(-n2cnc3ccc(OC4CCN(C)CC4)cc32)sc1C(N)=O)c1ccccc1Cl`, the GI50 in the experiment with MOLT-4 leukemia was 0.0123 µM; in the experiment on OVCAR-3 ovarian, 0.00858 µM; in the experiment on U251 CNS, 0.0155 µM; in the experiment with OVCAR-4 ovarian, 1.62 µM; in the experiment with HCT-15 colon, 0.0827 µM; in the experiment on NCI-H522 lung, 0.0117 µM. Besides, the GI50 was 0.0234 µM in the experiment with HCC-2998 colon, 0.255 µM in the experiment on SN12C renal and 0.0207 µM in the experiment on SF-295 CNS. Further, the TGI in the experiment on MOLT-4 leukemia amounted to 5.19 µM; in the experiment with OVCAR-3 ovarian it was 3.2 µM; with U251 CNS, 4.13 µM; with OVCAR-4 ovarian, 9.09 µM; in the experiment with HCT-15 colon, 3.55 µM; in the experiment on NCI-H522 lung it was 5.03 µM. For the same molecule, the TGI came out at 2.98 µM in the experiment on HCC-2998 colon, 4.75 µM in the experiment on SN12C renal and 4.34 µM in the experiment on SF-295 CNS.

For the molecule `C=C(c1ccc(OC)c(/C=C/C(=O)c2ccc3c(c2)OCO3)c1)c1cc(OC)c(OC)c(OC)c1`, the GI50 in the experiment on MOLT-4 leukemia is 3.08 µM; in the experiment on OVCAR-3 ovarian it was 2.98 µM; with U251 CNS, 2.54 µM; in the experiment on OVCAR-4 ovarian, 3.93 µM; in the experiment on NCI-H522 lung, 1.55 µM; in the experiment with SN12C renal, 3.84 µM. Further, the GI50 in the experiment with SF-295 CNS was 4.14 µM. Also, the total growth inhibition concentration (TGI) with MOLT-4 leukemia was over 100 µM; with OVCAR-3 ovarian, 8.21 µM; in the experiment with U251 CNS, 9.88 µM; in the experiment with OVCAR-4 ovarian, over 100 µM; in the experiment with NCI-H522 lung, 4.78 µM; with SN12C renal, over 100 µM. This molecule registered a total growth inhibition concentration (TGI) with SF-295 CNS of over 100 µM.

Turning to `Clc1c(Cl)[n+](Cc2ccc3ccccc3c2)cn1Cc1ccc2ccccc2c1`, the GI50 with OVCAR-3 ovarian is 1.34 µM; in the experiment with U251 CNS, 1.53 µM; in the experiment with OVCAR-4 ovarian, 1.36 µM; with HCT-15 colon it was 1.82 µM; with M14 melanoma, 1.21 µM; with NCI-H522 lung it was 1.12 µM. The GI50 in the experiment on HCC-2998 colon is 1.53 µM; in the experiment with SN12C renal it was 1.53 µM; with SF-295 CNS, 1.4 µM. In addition, the TGI in the experiment on OVCAR-3 ovarian is 2.69 µM; in the experiment on U251 CNS, 2.94 µM; with OVCAR-4 ovarian, 3 µM; in the experiment on HCT-15 colon, 3.62 µM; in the experiment with M14 melanoma, 2.8 µM; in the experiment with NCI-H522 lung, 2.67 µM. Besides, the results for the total growth inhibition concentration (TGI) in the experiment with HCC-2998 colon, in the experiment with SN12C renal and in the experiment with SF-295 CNS were 3.05 µM, 2.99 µM and 2.82 µM, respectively.

With `O=C(O)CSc1n[nH]c(=O)[nH]c1=O`, the TGI in the experiment with MOLT-4 leukemia, in the experiment with OVCAR-3 ovarian, in the experiment with U251 CNS, in the experiment on OVCAR-4 ovarian, in the experiment on HCT-15 colon and in the experiment with M14 melanoma was over 100 µM throughout. For the same molecule, the TGI with NCI-H522 lung, with SN12C renal and in the experiment on SF-295 CNS was over 100 µM each time.

Consider `NC(=O)NNC(=O)CCn1[nH]c(=O)c(Cl)c(Cl)c1=O`, for which the TGI in the experiment on OVCAR-3 ovarian, in the experiment on U251 CNS, with OVCAR-4 ovarian, in the experiment on HCT-15 colon, in the experiment on M14 melanoma and in the experiment on NCI-H522 lung was over 100 µM throughout. Further, the TGI in the experiment with HCC-2998 colon, with SN12C renal and with SF-295 CNS was over 100 µM in each case.

With `CC1=N/C(=C/c2ccc3c(c2)OCO3)C(=O)O1`, the TGI in the experiment with MOLT-4 leukemia, in the experiment with OVCAR-3 ovarian, with U251 CNS, in the experiment with OVCAR-4 ovarian, in the experiment on HCT-15 colon and in the experiment with M14 melanoma was over 100 µM in each case. The TGI in the experiment on NCI-H522 lung and with SN12C renal was over 100 µM in each case.

Take `CCN(CC)CCCNc1nccc2c(C)c3c(cc12)c1cnccc1n3C`: the concentration for total growth inhibition (TGI) stood at 0.735 µM in the experiment with OVCAR-3 ovarian; 1.77 µM with U251 CNS; 0.131 µM in the experiment on OVCAR-4 ovarian; 0.779 µM in the experiment with HCT-15 colon; 1.12 µM in the experiment on M14 melanoma; 0.256 µM with HCC-2998 colon. Also, the total growth inhibition concentration (TGI) in the experiment with SN12C renal was found to be 1.75 µM; in the experiment with SF-295 CNS it was 1.31 µM.

On to `OC(CNc1ccnc2cc(Cl)ccc12)CNc1ccnc2cc(Cl)ccc12`, for which the GI50 with OVCAR-3 ovarian was 1.81 µM; in the experiment with OVCAR-4 ovarian, 1.64 µM; in the experiment on HCT-15 colon it was 17.2 µM; in the experiment on M14 melanoma, 1.73 µM; in the experiment with SN12C renal it was 1.89 µM; in the experiment with SF-295 CNS, 1.82 µM. Also, the TGI turned out to be 3.42 µM in the experiment with OVCAR-3 ovarian; 3.34 µM in the experiment on OVCAR-4 ovarian; 44.6 µM with HCT-15 colon; 3.18 µM with M14 melanoma; 3.7 µM with SN12C renal; 3.56 µM in the experiment with SF-295 CNS.

`Cc1cnc2n1S(=O)(=O)c1cc(C(=O)Nc3cccc4nsnc34)c(Cl)cc1S2`: the GI50 was 45.1 µM in the experiment with MOLT-4 leukemia; 16.2 µM with OVCAR-3 ovarian; 31.6 µM in the experiment on U251 CNS; 27.8 µM with OVCAR-4 ovarian; 38.1 µM with HCT-15 colon; 52.2 µM in the experiment with M14 melanoma. Besides, the figures for the GI50 in the experiment with NCI-H522 lung, with SN12C renal and in the experiment with SF-295 CNS were 47.6 µM, 25.3 µM and 22.8 µM, respectively. In addition, the total growth inhibition concentration (TGI) with MOLT-4 leukemia is over 100 µM; with OVCAR-3 ovarian it was 30.2 µM; with U251 CNS it was over 100 µM; with OVCAR-4 ovarian, 75.4 µM; in the experiment with HCT-15 colon, over 100 µM; with M14 melanoma it was over 100 µM. The figures for the TGI in the experiment with NCI-H522 lung, in the experiment on SN12C renal and in the experiment on SF-295 CNS were over 100 µM, 58.5 µM and 49.3 µM, respectively.
